Values of other authors, collected in patent publication US20060275243A1, “Cosmetic or therapeutic combination preparation with theanine” (ROVI GmbH & Co. Kosmetische Rohstoffe KG, priority 2005, published 2006).

Details: investigations referred to in the description

## CCNC(=O)CC[C@H](N)C(=O)O [theanine]
  effect on the cramp-triggering effect of caffeine: can inhibit the cramp-triggering effect of caffeine
